{"source": "patent US11944094B1", "about": "“Seed germination activator for control of broomrape” (KING FAISAL UNIVERSITY, priority 2023, dated 2024)", "tested_on": "broomrape", "test": "Field experiment: reduction of broomrape biomass by BIP in irrigation water before planting host crops", "assay_type": "in vivo, Orobanche", "method": "Testing was performed to determine the effect of BIP in different plant species as host crops (faba bean, tomato, and potato), soil type (sand soil and light clay soil), application time (late October and late February), and different climactic regions (Al Behera governate and Al Noubareia), using various concentrations of the substrate (100-500 ppm) to increase the inhibitory effect. […] Thus, BIP, when formulated and administered at 100-500 ppm with the irrigation water is an effective bio agent for controlling broomrape.", "data": [{"smiles": "CCCCOC(=O)c1ccccc1C(=O)OCC(C)C", "note": "[BIP, butylisobutylphthalate]", "values": [{"measurement": "reduced broomrape biomass", "setting": "300 ppm in irrigation water 8-10 days before cultivation, light clay soil for faba beans and potato, sand soil for faba bean, 20th of October", "result": 65, "unit": "%"}, {"measurement": "reduction in broomrape biomass", "setting": "400 ppm in irrigation water 10 days before planting, sand soil, 15th of February, tomato plants", "result": 69, "unit": "%"}, {"measurement": "increase of inhibition effect relative to the activity observed at 400 ppm", "setting": "BIP 500 ppm versus 400 ppm", "result": "≤ 10", "unit": "%"}, {"measurement": "% Reduction Broomrape Biomass", "setting": "Faba bean (Misr-3), cultivation October, light clay soil, BIP 300 ppm", "result": 65.0, "unit": "%"}, {"measurement": "% Reduction Broomrape Biomass", "setting": "Faba bean (Misr-3), cultivation October, sandy soil, BIP 300 ppm", "result": 59.8, "unit": "%"}, {"measurement": "% Reduction Broomrape Biomass", "setting": "Potato (Yarla), cultivation September, light clay soil, BIP 325 ppm", "result": 62.3, "unit": "%"}, {"measurement": "% Reduction Broomrape Biomass", "setting": "Tomato (Star Valley), cultivation February, sandy soil, BIP 400 ppm", "result": 71.8, "unit": "%"}, {"measurement": "reduction of broomrape", "setting": "lower concentrations of BIP (100-200 ppm)", "result": "15%-18%"}]}]}
